SMILES strings stand for the structures. Converted amounts (≈) assume the structure as drawn. Read-outs that look alike come from different tables or passages of the source.

Data set [1] relates to SAR-CoV-2. The settings on record: cited from earlier work.
Data set [2] has as its system SARS-CoV-2. The settings on record: Pruijssers et al., 2020, cited from earlier work.
For data set [3] the following is noted: cited from earlier work.
A short description of data set [4]: Solubility in simulated lung fluid (SLF). It is filed as physicochemical. The settings on record: for solubility in SLF: 25° C., 24 h. Here is the method: The composition and preparation of simulated lung fluid (SLF) were adapted from Hassoun's study (Hassoun et al., 2018). SLF contained dipalmitoylphosphotidylcholine (DPPC), cholesterol, albumin, transferrin, ascorbic acid and Hank's balanced salt solution (HBSS). The SLF was prepared by two steps including a preparation of liposomal dispersion and freeze drying as described in Hassoun et al. (Hassoun et al., 2018). In the first step, a liposomal dispersion was prepared by mixing 2.12 mL of 25 mg/mL DPPC and 5 μL of 200 mg/mL cholesterol in chloroform. Then, the solution was dried using an evaporator until the dry film was obtained. The thin film of lipid was dispersed by adding 8 mL of 57 mg/mL bovine serum albumin in water, 1 mL of 15 mg/mL transferrin in water, and 88.5 μL of 10 mM ascorbate solution. The mixture was sonicated until it fully dispersed. The dispersion was adjusted to 10 mL by adding 1M HBSS). The dispersion was frozen at −20° C. for 6 h, and primary dried in the lyophilizer at −40° C. for 30 h and ramp to 25° C. for 12 h and finally secondary dried at 25° C. for 20 h. The lyophilized SLF was stored at 2-8° C. and reconstituted with purified water upon solubility and dissolution testing.
The excess amount of powder was added in SLF until precipitation occurred. Then the samples were shaken on the orbital shaker at 250 rpm and 25° C. for 24 h. The samples were collected and centrifuged at 13,000 rpm for 15 min. The supernatants were collected and then diluted with DMSO/acetonitrile (10/90). The samples were centrifuged again at 13,000 rpm for 15 min to separate proteins in SLF. The supernatants were collected and analyzed by HPLC.

For data set [5] the following is noted: rats; cited from earlier work.

In general, EC50 refers to the concentration that produces a half-maximal response. With `N#C[C@@]1(c2ccc3c(N)ncnn23)O[C@H](CO)[C@@H](O)[C@H]1O` [GS-441524], the EC50 was 0.05243 µg/mL in data set [1] (human airway epithelial (HAE), Agostini et al., 2018); 180 nM in data set [1] (read-out: EC50); 620 nM in data set [2] (Calu3 2B4 cells, read-out: EC50); 0.1806 µg/mL in data set [2] (Calu-3 2B4 cells). Besides, in data set [3] (human, in vivo, iv), the half-life entry was “approximately 24.5 h”.
Regarding `CCC(CC)COC(=O)[C@H](C)N[P@](=O)(OC[C@H]1O[C@@](C#N)(c2ccc3c(N)ncnn23)[C@H](O)[C@@H]1O)Oc1ccccc1` [amorphous remdesivir, remdesivir], in data set [4], the “increase in solubility compared to crystalline neat remdesivir” value is recorded as 20 fold, the “solubility of amorphous versus crystalline remdesivir” value is listed as “about 20 times” and the “solubility in SLF” value was 590 ± 10 µg/mL (≈ 979 µM).
For `CCC(CC)COC(=O)[C@H](C)N[P@](=O)(OC[C@H]1O[C@@](C#N)(c2ccc3c(N)ncnn23)[C@H](O)[C@@H]1O)Oc1ccccc1` [crystalline remdesivir, remdesivir], the “solubility in SLF” value in data set [4] is 30 ± 1 µg/mL (≈ 49.8 µM).
`CCC(CC)COC(=O)[C@H](C)N[P@](=O)(OC[C@H]1O[C@@](C#N)(c2ccc3c(N)ncnn23)[C@H](O)[C@@H]1O)Oc1ccccc1` [remdesivir]: the “half-life of remdesivir in plasma” value in data set [5] is recorded as “less than 0.9 min”. In addition, the half-life result in data set [3] (humans, multiple IV administrations once a day) was “about 1 h”.

The record behind these values is patent US20230263816A1, “PHARMACEUTICAL COMPOSITIONS FOR DELIVERY OF REMDESIVIR BY INHALATION” (priority 2020, published 2023).
